Measured values published in patent US12564638B2 (SHANGHAITECH UNIVERSITY, priority 2019, dated 2026).
Where two headings read alike, the source gives them in different places.

Assays:
Type in all cases: cell-based
[1] = target: T1, EGFR (L858R+T790M) in H1975 cells (Homo sapiens, UniProt P00533, L858R/T790M); test: Western blot of EGFR protein level (degradation), H1975 cells; settings: 16 hours; for EGFR degradation (EGFR level, western blot): H1975 cells, 1, 10, 50, 100, 500 nM; for DC50: H1975 cells, western blot
T1 construct: determined in H1975 cells with the EGFR L858R+T790M mutation; endogenous in cells; host or cells: H1975
Protocol: Cancer cells were planted in 12-well-plate at the density of 0.15 million cells per well with 1 mL RPMI1640 completed culture medium. Compounds with different concentrations (DMSO as a solution system, and 1 μL of compounds of different concentrations was added to 1 mL of the cell culture medium) were added to the cells planted one day before. 16 hours after treated, the medium was discarded and the cells were washed with precooled PBS. The cells were placed on ice and treated with RIPA protein lysis buffer containing halt protease and phosphatase inhibitor. After centrifugation at 10000 rpm at 4° C. for 10 minutes, the supernatant was collected. The same amount of proteins were added into 4×SDS loading buffer and heated at 95° C. for 5 minutes for denaturation, and the samples were stored at −20° C. after denaturation, or directly conducted protein electrophoresis. The 4-20% gradient preformed Electrophoretic gels were purchased from Kingsy. The electrophoresis tank and related components were purchased from Bio-rad company, and the electrophoresis condition was isobaric 120V for 2 hours. PVDF membrane was used for the transmembrane, and the whole transmembrane process was carried out on ice with a constant current of 0.4 amperes for an hour. The membrane was blocked with 5% skimmed milk dilution with TBST buffer. Refer to the corresponding antibody instructions for the specific steps of immunoblotting.
The degradation efficacy of the dacomitinib-based compounds on EGFR was determined in HCC827 and H1975 cell lines, which harboring EGFR Exon 19del and EGFR L858R+T790M mutations respectively.
In FIG. 2, concentration-dependent degradation assays were performed on non-small cell lung cancer cell line H1975 (T790M-mutant cell line, the most common mutation type of first-generation EGFR inhibitors). […] The DC50 of compounds SIAIS262032 and SIAIS262037 are both about 50 nM, which provides great potential for drug development to overcome drug resistance caused by EGFR T790M mutation.
The degradation efficacy of the canertinib-based compounds on EGFR was determined in H1975 cells with the EGFR L858R+T790M mutation.
The H1975 cells were treated with the PROTADs with different concentrations (1, 10, 50, 100, 500 nM) for 16 hours, and then the western blot assay was taken to estimate the EGFR levels of the cell lysates in each group. […] The DC50 of SIAIS262125 and SIAIS262182 are both less than 10 nM, much better than canertinib, which provides great potential for drug development to overcome drug resistance caused by EGFR T790M mutation.

[2] = tested on: PC9 cells (EGFR Exon 19 del, non-small cell lung cancer cells); test: Cell viability assay (WST/CCK8), PC9 cells; settings: Homo sapiens, PC-9, 72 hours, WST (CCK8), read-out: IC50 (half inhibitory concentration)
In short: (§1)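 Plated 3 000 cells/well in complete RPMI1640 the day before dosing; controls were DMSO (negative) and EGFR TKIs (positive).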

[3] = tested on: HCC827 cells (EGFR Exon19 del, non-small cell lung cancer cells); test: Cell viability assay (WST/CCK8), HCC827 cells; settings: Homo sapiens, HCC827, 72 h, HCC827 (Exon19 Del), 72 hours, WST (CCK8), read-out: IC50 (half inhibitory concentration)
In short: as §1

[4] = tested on: PC9BracA1 (EGFR Exon 19 del+T790M, non-small cell lung cancer cells); test: Cell viability assay (WST/CCK8), PC9Brac1 cells; settings: PC9Brac1 (Ex19del + T790M), 72 hours, WST; read-out: IC50 (half inhibitory concentration)
In short: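 Cells seeded at 3 000 per well in RPMI1640 complete medium, dosed next day with compounds at indicated concentrations (DMSO negative control, EGFR TKIs as positive control).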

[5] = tested on: BT474 cells (HER2 positive breast cancer cells); test: Cell viability assay (CCK8), BT474 cells; settings: Homo sapiens, BT-474, Table 10, BT474, 72 hours, read-out: IC50 (half inhibitory concentration)
In short: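 HER2-overexpressing BT474 cells in RPMI1640 were exposed to compounds for 72 hours over 10 concentrations (3-fold dilution, top 10 μM). Viability was measured with CCK8 reagent against a DMSO control, and IC50 was taken from growth inhibition curves.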

[6] = tested on: PC9 DCT (Del19+T790M+C797S) cells; test: Cell viability assay, PC9 cells with EGFR triple mutation; settings: Homo sapiens, PC-9; Table 9; PC9 (Del + T790M + C797S), EGFR triple mutations; read-out: IC50 (half inhibitory concentration)
Description: Construction of EGFR triple mutant cell line PC9 DCT (Dell9+T790M+C797S): The cDNA expressing human EGFR was cloned into pLVX vector, and exon 19 deletion mutation (746-750) and T790M mutation were introduced by point mutation and C797S mutation. Transferred into PC9 cells by lentiviral packaging. Cells stably expressing EGFR triple mutations were obtained by fluorescence screening.
The cDNA sequence expressing human EGFR was cloned into a pLVX vector (GFP^+), and then introduce the EGFR exon 19 deletion (746-750), exon 20 T790M and C797S mutations by were generated by site-directed mutagenesis. The PC9 cells were infected with lentivirus containing the indicated EGFR mutations, and the cells stably expressing EGFR triple mutation were obtained by fluorescence screening.
All of the half inhibitory concentrations (IC50) of these compounds of the present invention were determined with WST reagent from Fuyuan Biotec Company. The specific experiment procedures are as follows: Cancer cells were planted in 96-well-plate at the density of 3 000 cells per well with 100 μL RPMI1640 completed culture medium. In the next day, compounds with indicated concentrations were added to the cells, DMSO was used as the negative control and the EGFR TKIs were used to treat cells as the positive groups. After 72 hours drug treatment, cell viability was measured by using the WST reagent following the instructions. The growth inhibition curve of the compounds on cells were plotted by Prism GraphPad, and the compounds IC50 calculated from it.
The cell viability assays were taken to determine the anti-tumor activity of these indicated compounds in PC9 cells, which overexpressed Exon 19del+T790M+C797S triple mutant EGFR.

[7] = Table 3, poziotinib-based compounds, PC9 (Exon 19 Del)
[8] = Table 3, poziotinib-based compounds

T1 sequence (P00533 25-1210 T790M/L858R): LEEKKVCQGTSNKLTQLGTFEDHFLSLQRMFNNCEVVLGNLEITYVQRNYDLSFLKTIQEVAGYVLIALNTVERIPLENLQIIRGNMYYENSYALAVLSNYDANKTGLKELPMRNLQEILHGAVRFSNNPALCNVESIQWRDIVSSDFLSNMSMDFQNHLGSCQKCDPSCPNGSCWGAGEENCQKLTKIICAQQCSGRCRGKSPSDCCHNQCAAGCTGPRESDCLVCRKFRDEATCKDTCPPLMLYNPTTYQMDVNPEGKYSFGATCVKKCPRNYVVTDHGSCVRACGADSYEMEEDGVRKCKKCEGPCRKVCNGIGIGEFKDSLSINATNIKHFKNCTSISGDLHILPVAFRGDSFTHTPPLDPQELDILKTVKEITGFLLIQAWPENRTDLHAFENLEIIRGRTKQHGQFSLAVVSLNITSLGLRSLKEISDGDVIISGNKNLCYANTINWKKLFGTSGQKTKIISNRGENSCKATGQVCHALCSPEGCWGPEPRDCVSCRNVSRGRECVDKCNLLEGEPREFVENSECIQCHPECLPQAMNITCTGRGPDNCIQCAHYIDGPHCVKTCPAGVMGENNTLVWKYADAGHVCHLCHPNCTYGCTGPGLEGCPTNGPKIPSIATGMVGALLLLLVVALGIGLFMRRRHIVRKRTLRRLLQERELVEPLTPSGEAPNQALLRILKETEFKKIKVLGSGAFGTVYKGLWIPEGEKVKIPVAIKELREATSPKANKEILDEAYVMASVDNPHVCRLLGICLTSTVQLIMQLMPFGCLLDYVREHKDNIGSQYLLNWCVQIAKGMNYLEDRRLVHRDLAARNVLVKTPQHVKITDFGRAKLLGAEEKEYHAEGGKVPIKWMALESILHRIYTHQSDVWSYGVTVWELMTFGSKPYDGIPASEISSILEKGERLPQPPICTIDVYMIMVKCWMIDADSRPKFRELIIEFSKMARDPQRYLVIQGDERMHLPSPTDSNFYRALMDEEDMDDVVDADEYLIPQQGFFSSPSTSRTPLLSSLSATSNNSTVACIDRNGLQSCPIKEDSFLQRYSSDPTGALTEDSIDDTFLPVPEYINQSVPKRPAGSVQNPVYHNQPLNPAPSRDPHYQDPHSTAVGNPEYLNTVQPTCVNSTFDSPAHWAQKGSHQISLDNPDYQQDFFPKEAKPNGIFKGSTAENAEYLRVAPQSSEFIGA

| Structure (SMILES) | EGFR degradation (EGFR level, western blot) [1] | DC50 [1] [µM] | IC50 ([2]; PC9 (Exon19 Del)) [µM] | IC50 [3] [µM] | IC50 [4] [µM] | IC50 [5] [µM] | IC50 [2, 7] [µM] | IC50 [6] [µM] | IC50 [3, 8] [µM] |
| --- | --- | --- | --- | --- | --- | --- | --- | --- | --- |
| COc1cc2ncnc(Nc3ccc(F)c(Cl)c3)c2cc1NC(=O)/C=C/CN1CCC(N2CCN(C(=O)CCCCCSc3cccc4c3C(=O)N(C3CCC(=O)NC3=O)C4=O)CC2)CC1 (stereo not shown) [SIAIS262032, (E)-N-(4-((3-chloro-4-fluorophenyl)amino)-7-methoxyquinazolin-6-yl)-4-(4-(4-(6-((2-(2,6-dioxopiperidin-3-yl)-1,3-dioxoisoindolin-4-yl)thio)hexanoyl)piperazin-1-yl)piperidin-1-yl)but-2-enamide] | obvious EGFR degradation efficacy | ~0.05 | 0.0435 | 0.0033 | 0.438 |  |  |  |  |
| COc1cc2ncnc(Nc3ccc(F)c(Cl)c3)c2cc1NC(=O)/C=C/CN1CCC(N2CCN(C(=O)CCCCCCNc3cccc4c3C(=O)N(C3CCC(=O)NC3=O)C4=O)CC2)CC1 (stereo not shown) [SIAIS262037, (E)-N-(4-((3-chloro-4-fluorophenyl)amino)-7-methoxyquinazolin-6-yl)-4-(4-(4-(7-((2-(2,6-dioxopiperidin-3-yl)-1,3-dioxoisoindolin-4-yl)amino)heptanoyl)piperazin-1-yl)piperidin-1-yl)but-2-enamide] | obvious EGFR degradation efficacy | ~0.05 | 0.0021 | 0.0016 |  | 0.0009 |  |  |  |
| COc1cc2ncnc(Nc3ccc(Cl)c(Cl)c3F)c2cc1OC1CCNCC1 [Poziotinib derivative A (SIAIS219149), N-(3,4-dichloro-2-fluorophenyl)-7-methoxy-6-(piperidin-4-yloxy)quinazolin-4-amine] |  |  |  |  |  | 0.0812 | 0.017 | 0.0052 | 0.0071 |
| COc1cc2ncnc(Nc3ccc(Cl)c(Cl)c3F)c2cc1OC1CCN(C(=O)CCSc2cccc3c2CN(C2CCC(=O)NC2=O)C3=O)CC1 (stereo not shown) [SIAIS219165, 3-(4-((3-(4-((4-((3,4-dichloro-2-fluorophenyl)amino)-7-methoxyquinazolin-6-yl)oxy)piperidin-1-yl)-3-oxopropyl)thio)-1-oxoisoindolin-2-yl)piperidine-2,6-dione] |  |  |  |  |  | 0.0027 | 0.003 | 0.0046 | 0.023 |
| COc1cc2ncnc(Nc3ccc(Cl)c(Cl)c3F)c2cc1OC1CCN(C(=O)CCSc2cccc3c2C(=O)N(C2CCC(=O)NC2=O)C3=O)CC1 (stereo not shown) [SIAIS249015, 4-((3-(4-((4-((3,4-dichloro-2-fluorophenyl)amino)-7-methoxyquinazolin-6-yl)oxy)piperidin-1-yl)-3-oxopropyl)thio)-2-(2,6-dioxopiperidin-3-yl)isoindoline-1,3-dione] |  |  |  |  |  | 0.087 | 0.13 | 0.0047 | 0.046 |
| COc1cc2ncnc(Nc3ccc(Cl)c(Cl)c3F)c2cc1OC1CCN(C(=O)CNc2cccc3c2C(=O)N(C2CCC(=O)NC2=O)C3=O)CC1 (stereo not shown) [SIAIS219177, 4-((2-(4-((4-((3,4-dichloro-2-fluorophenyl)amino)-7-methoxyquinazolin-6-yl)oxy)piperidin-1-yl)-2-oxoethyl)amino)-2-(2,6-dioxopiperidin-3-yl)isoindoline-1,3-dione] |  |  |  |  |  | 0.0359 | 0.038 | 0.0024 | 0.0082 |
| COc1cc2ncnc(Nc3ccc(Cl)c(Cl)c3F)c2cc1OC1CCN(C(=O)CCCSc2cccc3c2C(=O)N(C2CCC(=O)NC2=O)C3=O)CC1 (stereo not shown) [SIAIS249016, 4-((4-(4-((4-((3,4-dichloro-2-fluorophenyl)amino)-7-methoxyquinazolin-6-yl)oxy)piperidin-1-yl)-4-oxobutyl)thio)-2-(2,6-dioxopiperidin-3-yl)isoindoline-1,3-dione] |  |  |  |  |  |  |  | 0.0015 | 0.029 |
| COc1cc2ncnc(Nc3ccc(Cl)c(Cl)c3F)c2cc1OC1CCN(C(=O)CCCSc2cccc3c2CN(C2CCC(=O)NC2=O)C3=O)CC1 (stereo not shown) [SIAIS219166, 3-(4-((4-(4-((4-((3,4-dichloro-2-fluorophenyl)amino)-7-methoxyquinazolin-6-yl)oxy)piperidin-1-yl)-4-oxobutyl)thio)-1-oxoisoindolin-2-yl)piperidine-2,6-dione] |  |  |  |  |  |  |  | 0.0046 | 0.03 |
| COc1cc2ncnc(Nc3ccc(Cl)c(Cl)c3F)c2cc1OC1CCN(C(=O)CCCCSc2cccc3c2CN(C2CCC(=O)NC2=O)C3=O)CC1 (stereo not shown) [SIAIS219167, 3-(4-((5-(4-((4-((3,4-dichloro-2-fluorophenyl)amino)-7-methoxyquinazolin-6-yl)oxy)piperidin-1-yl)-5-oxopentyl)thio)-1-oxoisoindolin-2-yl)piperidine-2,6-dione] |  |  |  |  |  |  |  | 0.0041 | 0.031 |
| COc1cc2ncnc(Nc3ccc(Cl)c(Cl)c3F)c2cc1OC1CCN(C(=O)CCCCNc2cccc3c2C(=O)N(C2CCC(=O)NC2=O)C3=O)CC1 (stereo not shown) [SIAIS219180, 4-((5-(4-((4-((3,4-dichloro-2-fluorophenyl)amino)-7-methoxyquinazolin-6-yl)oxy)piperidin-1-yl)-5-oxopentyl)amino)-2-(2,6-dioxopiperidin-3-yl)isoindoline-1,3-dione] |  |  |  |  |  |  |  | 0.0033 | 0.0267 |
